Legend:
WzmWzt (full-length) = target: T1, WzmWzt (full-length) (Aquifex aeolicus, UniProt O67181); test: NADH-coupled ATPase assay; format: biochemical; conditions: 1 mM ATP, 27 °C; CBD ligand, non-physiologically high concentration
T1 construct: gene abcT4; full-length wild-type transporter, Wzm2Wzt2; His-tagged (WzmWzt-His), purified as previously described; in lipid nanodiscs or DDM micelles; with O antigen ABC transporter permease Wzm (Transport permease protein)

[1] = target: T2, Wzt-CBD (also Wzt-CBM, WztC) (Aquifex aeolicus, UniProt O67181); test: isothermal titration calorimetry; format: binding; conditions: 50 mM HEPES pH 8.0, 25 °C; 1:1 per CBD monomer; read-out: affinity
T2 construct: gene abcT4; N-terminal His6-TEV tag removed; E. coli C43(DE3); domain-swapped dimer
T2 sequence (O67181 entry or part of it): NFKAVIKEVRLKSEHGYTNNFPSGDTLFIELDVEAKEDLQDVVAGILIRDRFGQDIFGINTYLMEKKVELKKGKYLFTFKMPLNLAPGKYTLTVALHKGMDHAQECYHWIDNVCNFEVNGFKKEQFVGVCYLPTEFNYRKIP

T1 sequence (O67181 entry or part of it): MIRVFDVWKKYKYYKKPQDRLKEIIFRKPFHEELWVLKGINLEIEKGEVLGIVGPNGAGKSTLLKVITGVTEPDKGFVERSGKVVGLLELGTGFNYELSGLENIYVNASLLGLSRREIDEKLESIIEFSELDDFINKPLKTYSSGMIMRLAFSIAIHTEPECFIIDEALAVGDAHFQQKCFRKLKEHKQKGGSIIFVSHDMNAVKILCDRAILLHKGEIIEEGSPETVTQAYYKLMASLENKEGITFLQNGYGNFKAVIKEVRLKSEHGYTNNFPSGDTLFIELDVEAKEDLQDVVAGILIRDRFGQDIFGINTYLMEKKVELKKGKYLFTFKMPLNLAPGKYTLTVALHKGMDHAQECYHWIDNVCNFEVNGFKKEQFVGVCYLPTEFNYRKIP
T1 sequence (O67182 entry or part of it, further chain): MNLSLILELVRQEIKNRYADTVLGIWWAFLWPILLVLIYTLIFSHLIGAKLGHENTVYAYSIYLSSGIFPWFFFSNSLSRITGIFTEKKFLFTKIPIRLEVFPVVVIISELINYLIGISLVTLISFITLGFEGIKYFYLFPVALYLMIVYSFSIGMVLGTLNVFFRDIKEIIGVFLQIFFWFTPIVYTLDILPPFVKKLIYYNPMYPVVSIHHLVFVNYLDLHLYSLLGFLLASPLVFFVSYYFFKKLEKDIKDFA

SMILES: CO[C@H]1[C@H](O)[C@@H](CO)OC(O)[C@H]1O (stereo partly drawn) [3-O-methyl-D-mannose]
- % increase in ATPase activity at high concentration (WzmWzt (full-length)): ~ 50%
- Kd [1]: ~234 µM
